Paper PMC6162288, “On-chip spatiotemporal electrophysiological analysis of human stem cell derived cardiomyocytes enables quantitative assessment of proarrhythmia in drug development” (Scientific Reports, 2018)
Values joined by “and” are separate entries in the source; they are usually repeats but may differ in a detail not shown here. Identical values can stand only once. “Also recorded” adds a separate entry of the source. Like-named read-outs stand apart in the source and are kept apart here.

What was measured:
lined-up hESC-CMs = assay: MEA field potential recording of lined-up hESC-CMs (cFPD, CT, their STVs, ISI, beat rate, arrest); format: cell-based, human
Description: Human embryonic stem cell-derived cardiomyocytes clusters (hES-CMCs) were shipped from Cellectis (hES-CMCTM002, hES cell line SA002, Gothenburg, Sweden)[42],[43], and maintained in Dulbecco’s modified Eagle’s medium (DMEM) supplemented 20% heat-inactivated fetal bovaine serum, 1 mM GlutaMax, 100 U/mL penicillin, 0.1 mg/mL streptomycin, 1% nonessential amino acids and 0.1 mM β-mercaptoethanol (Invitrogen, Carsbad, CA, USA). Dispersed cardiomyocytes were isolated from hES-CMCs by a modification of the methods of Norström et al.[44]–[48]. […] The supernatant was gently aspirated with pipette, and a 5-hold volume of DMEM was added as stop solution. Remaining clusters were treats ed with the above process with several times. The supernatants were collected and centrifuged with 200 × g for 2–3 min at 4 °C. The resulting supernatant including dispersed cells was seeded into agarose microchambers on an MEA chip (MED-P530A; AlphaMED scientific. Co. Ltd., Japan)[40].
The MEA chip surface was prepared as follows. First, the chip surface was coated with collagen type I-C (Nitta Gelatin, Japan). After drying, the chip surface was coated with a 0.1% agarose gel. […] At >30 min before the start of experiment, the medium was changed to 2 mL pre-warmed fresh maintenance medium per chip.
Extracellular potential recordings of the lined-up hESC-CMs were performed using the MEA system at a sampling rate of 10 kHz with a low path filter of 2 kHz and high path filter of 1 Hz, and signals were amplified by 100–50,000 using the amplifier. The MEA chip with lined-up hESC-CMs was set in the FP measurement device and placed in a humidified cell culture incubator at 37 °C, 5% CO2. The signals were analyzed by Igor Pro 6.0 (WaveMetrics, Inc., USA) and FlexPro 7.0 (Weisang GmbH, Germany).
We adopted the same drug administration protocol as we examined previously[40] (Fig. 2B). Briefly, the MEA chips of lined-up cells for experiments were selected from the chips having 0.6–1.1 Hz beating frequency and ventricle-like waveforms of FP recordings (see Fig. 1B,D). The MEA chip was placed in the holder of the FP measurement device, and equilibrated for 5 min, and then the control FP waveforms were recorded for 10 min. Subsequently, the drug was applied to the medium at 1% dilution in serially increasing additions, and the FP waveforms were recorded for 10 min at each concentration. Finally, the drug-containing medium was replaced with fresh medium after washing three times. The last 50 beats extracted from 10 min recorded FP waveform data was used for beat rate, FPD (the time from first depolarization peak to broad repolarization peak) and CT (the time difference of the first peaks between separately placed electrodes in lined-upped cell-network) measurement at each concentration (Fig. 2C).
It was normalized (cFPD) to the beating rate of cardiomyocytes using Bazett’s correction formula based on the comparison of the slope of a plot of inter-spike interval and FPD, or corrected FPD by Bazett’s or Fridericia’s formulae (Fig. 3). The short-term variability (STV) of cFPD and CT, which was defined as the mean distance of points perpendicular to the line of identity in the Poincaré plot, was calculated ( STV=∑|D(n+1)−Dn|/(n×2) , where Dn represents the FPD and CT of n-th beating). STVs were last 50 beat data from 5 min extraction of cFPD and CT. To assess the arrhythmogenicity risk of test drugs, the mean values of cFPD, STVcFPD, CT and STVCT of each drug were plotted.

Nav1.5 = settings: cited from earlier work
hERG = settings: read-out: IC50 hERG; cited from earlier work
Cav1.2 = settings: cited from earlier work
[1] = Conc. 10^2 nM (0.1 μM), change vs Ctrl.
[2] = Conc. 10^3 nM (1 μM), change vs Ctrl.
[3] = Conc. 10^−1 nM, change vs Ctrl.
[4] = Conc. 10^4 nM (10 μM), change vs Ctrl.
[5] = Conc. 10^5 nM (100 μM), change vs Ctrl.

For Cc1cccc(CCN2CCC(C(=O)c3ccc(NS(C)(=O)=O)cc3)CC2)n1 [E-4031], the STVcFPD (lined-up hESC-CMs; 1 μM) was “more than doubled”, the “BR (beat rate)” value (lined-up hESC-CMs; Conc. 1 nM, change vs Ctrl.) was 3.9% and the “Cond. Time (CT)” value (lined-up hESC-CMs; Conc. 1 nM, change vs Ctrl.) was −4.3%. The “ISI (inter-spike interval)” value (lined-up hESC-CMs; Conc. 1 nM, change vs Ctrl.) was −3.7%, the STVCT (lined-up hESC-CMs; Conc. 1 nM, change vs Ctrl.) was 19% and the STVcFPD (lined-up hESC-CMs; Conc. 1 nM, change vs Ctrl.) was −3.6%. The cFPD (lined-up hESC-CMs; Conc. 1 nM, change vs Ctrl.) was 0.69%, the “BR (beat rate)” value (lined-up hESC-CMs; Conc. 10 nM, change vs Ctrl.) was 4.5% and the “Cond. Time (CT)” value (lined-up hESC-CMs; Conc. 10 nM, change vs Ctrl.) was 2.1%. The “ISI (inter-spike interval)” value (lined-up hESC-CMs; Conc. 10 nM, change vs Ctrl.) was −4.2%, the STVCT (lined-up hESC-CMs; Conc. 10 nM, change vs Ctrl.) was 5.7% and the STVcFPD (lined-up hESC-CMs; Conc. 10 nM, change vs Ctrl.) was 17%. The cFPD (lined-up hESC-CMs; Conc. 10 nM, change vs Ctrl.) was 7.1%, the “Cond. Time (CT)” value (lined-up hESC-CMs; [1]) was 10% and the STVCT (lined-up hESC-CMs; [1]) was 43%. For the same molecule, the STVcFPD (lined-up hESC-CMs; [1]) was 94%, the cFPD (lined-up hESC-CMs; [1]) was 30% and the cFPD (lined-up hESC-CMs; Conc. 10^2 nM (0.1 μM), change vs Ctrl., listed as E-4301) was 30%. For the same molecule, the “BR (beat rate)” value (lined-up hESC-CMs; Conc. 10^2 nM, change vs Ctrl.) was 5.1%, the “ISI (inter-spike interval)” value (lined-up hESC-CMs; Conc. 10^2 nM, change vs Ctrl.) was −4.7% and the “Cond. Time (CT)” value (lined-up hESC-CMs; [2]) was 49%. The STVcFPD (lined-up hESC-CMs; [2]) was 110%, the cFPD (lined-up hESC-CMs; [2]) was 47% and the cFPD (lined-up hESC-CMs; Conc. 10^3 nM (1 μM), change vs Ctrl., listed as E-4301) was 47%. The “BR (beat rate)” value (lined-up hESC-CMs; Conc. 10^3 nM, change vs Ctrl.) was 5.8%, the “ISI (inter-spike interval)” value (lined-up hESC-CMs; Conc. 10^3 nM, change vs Ctrl.) was −5.1% and the “BR (beat rate)” value (lined-up hESC-CMs; [3]) was 2.6%. The “ISI (inter-spike interval)” value (lined-up hESC-CMs; [3]) was −2.5%, the STVCT (lined-up hESC-CMs; [3]) was 52% and the STVcFPD (lined-up hESC-CMs; [3]) was 2.9%. For the same molecule, the cFPD (lined-up hESC-CMs; [3]) was 0.52%, the “Cond. Time (CT)” value (lined-up hESC-CMs; Conc. 10^−1 nM, change vs Ctrl., 150 μm inter-electrode distance) was 8.9% and the “CT (mean conduction time)” value (lined-up hESC-CMs; any tested concentration) was “did not significantly change; also recorded: did not increase”.

In the case of O=C(NCC1CCCCN1)c1cc(OCC(F)(F)F)ccc1OCC(F)(F)F (stereo not drawn) [Flecainide, flecainide], the IC50 (Nav1.5; read-out: IC50 Nav1.5) is listed as 34 µM, the IC50 (Nav1.5; ref Table 1, read-out: Nav1.5 IC50) is listed as about 34 µM and the STVcFPD increase (lined-up hESC-CMs; 10–100 μM) is listed as “about 50%”. The “BR (beat rate)” value (lined-up hESC-CMs; Conc. 10 nM, change vs Ctrl.) was 2.6%, the “Cond. Time (CT)” value (lined-up hESC-CMs; Conc. 10 nM, change vs Ctrl.) was −3.2% and the “ISI (inter-spike interval)” value (lined-up hESC-CMs; Conc. 10 nM, change vs Ctrl.) was −2.5%. The STVCT (lined-up hESC-CMs; Conc. 10 nM, change vs Ctrl.) was 7.0%, the cFPD (lined-up hESC-CMs; Conc. 10 nM, change vs Ctrl.) was 0.13% and the “Cond. Time (CT)” value (lined-up hESC-CMs; [1]) was 12%. For the same molecule, the STVCT (lined-up hESC-CMs; [1]) was 61%, the STVcFPD (lined-up hESC-CMs; [1]) was −16% and the cFPD (lined-up hESC-CMs; [1]) was 3.4%. The “BR (beat rate)” value (lined-up hESC-CMs; Conc. 10^2 nM, change vs Ctrl.) was 3.9%, the “ISI (inter-spike interval)” value (lined-up hESC-CMs; Conc. 10^2 nM, change vs Ctrl.) was −3.7% and the “Cond. Time (CT)” value (lined-up hESC-CMs; [2]) was −0.65%. The STVCT (lined-up hESC-CMs; [2]) was 36%, the STVcFPD (lined-up hESC-CMs; [2]) was 0.32% and the cFPD (lined-up hESC-CMs; [2]) was 1.8%. The “BR (beat rate)” value (lined-up hESC-CMs; Conc. 10^3 nM, change vs Ctrl.) was 4.5%, the “ISI (inter-spike interval)” value (lined-up hESC-CMs; Conc. 10^3 nM, change vs Ctrl.) was −4.2% and the “Cond. Time (CT)” value (lined-up hESC-CMs; [4]) was 64% and 65%. For the same molecule, the STVCT (lined-up hESC-CMs; [4]) was 288%, the STVcFPD (lined-up hESC-CMs; [4]) was 41% and the cFPD (lined-up hESC-CMs; [4]) was 0.11%. The STVCT (lined-up hESC-CMs; Conc. 10^4 nM (10 μM), change vs Ctrl., listed as flecainide) was 287%, the “BR (beat rate)” value (lined-up hESC-CMs; Conc. 10^4 nM, change vs Ctrl.) was 5.1% and the “ISI (inter-spike interval)” value (lined-up hESC-CMs; Conc. 10^4 nM, change vs Ctrl.) was −4.7%. The “Cond. Time (CT)” value (lined-up hESC-CMs; [5]) was −3.6%, the STVCT (lined-up hESC-CMs; [5]) was 263% and the STVcFPD (lined-up hESC-CMs; [5]) was 54%. For the same molecule, the cFPD (lined-up hESC-CMs; [5]) was −14%, the Arrest (lined-up hESC-CMs; Conc. 10^5 nM, arrest cases/chips) was 1/4 and the “BR (beat rate)” value (lined-up hESC-CMs; Conc. 10^5 nM, change vs Ctrl.) was 5.8%. For the same molecule, the “ISI (inter-spike interval)” value (lined-up hESC-CMs; Conc. 10^5 nM, change vs Ctrl.) was −5.1%, the CT (lined-up hESC-CMs; at equivalent concentrations of Nav1.5 IC50) was “increased” and the FPD (lined-up hESC-CMs; up to 100 μM) was “did not show FPD prolongation”. The IC50 (hERG) was 1.8 µM, the IC50 (Cav1.2; read-out: Cav1.2 IC50, ref Table 1) was 56 µM and the IC50 (Cav1.2; read-out: IC50 Cav1.2) was 55.9 µM.
